Here are results for 13 compounds from patent publication US6534524B1, “Indazole compounds and pharmaceutical compositions for inhibiting protein kinases, and methods for their use” (Agouron Pharmaceuticals, Inc., priority 1999, dated 2003).

In series [1] the target is T1, human CHK1 (FL-CHK1) (Homo sapiens, UniProt O14757).
T1 construct: C-terminally His-tagged full-length human CHK1 (FL-CHK1); made in house; host or cells: baculovirus/insect cell system
T1 sequence (O14757 1-476): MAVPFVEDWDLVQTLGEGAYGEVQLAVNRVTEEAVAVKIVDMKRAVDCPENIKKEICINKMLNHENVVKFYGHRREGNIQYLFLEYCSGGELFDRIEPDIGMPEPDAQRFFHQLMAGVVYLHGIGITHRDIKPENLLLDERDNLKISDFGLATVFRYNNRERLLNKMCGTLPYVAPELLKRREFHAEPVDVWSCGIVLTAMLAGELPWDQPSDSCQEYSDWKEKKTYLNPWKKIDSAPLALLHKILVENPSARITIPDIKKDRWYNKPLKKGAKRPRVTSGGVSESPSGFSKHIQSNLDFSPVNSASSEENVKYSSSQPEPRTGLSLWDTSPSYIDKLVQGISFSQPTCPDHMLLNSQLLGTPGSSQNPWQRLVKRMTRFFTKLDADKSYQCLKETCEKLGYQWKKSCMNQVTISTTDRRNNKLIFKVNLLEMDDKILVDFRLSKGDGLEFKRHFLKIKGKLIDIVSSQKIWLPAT
Put plainly: CHK1 assay (coupled spectrophotometric, Syntide-2). Particulars: Table 3; read-out: CHK-1 Ki. The class given is biochemical. In short, it runs like this:
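Full-length C-terminally His-tagged human CHK1 expressed in baculovirus/insect cells, used at 10 nM with Syntide-2 substrate. ADP formation coupled via PK/LDH to NADH oxidation, followed as absorbance decrease at 340 nm. Ki from initial rates at varying compound concentrations.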

Series [2] deals with CDK2/Cyclin A (Homo sapiens, UniProt P24941). Put plainly: CDK2/Cyclin A assay ([32P]ATP, Rb fragment). The class given is biochemical. As to conditions: Table 3.
Series [3] deals with CDK1 (Homo sapiens, UniProt P06493). Kind of series: CDK1 inhibition. The class given is biochemical. Particulars: Table 3.
Series [4] concerns the target CDK4/Cyclin D3 complex (Homo sapiens, UniProt P11802). Put plainly: CDK4/Cyclin D assay ([32P]ATP, Rb fragment).
A short description of series [5]: Human liver microsome (HLM) assay. As to conditions: human liver microsomes, 5 μM test compound. The class given is in vitro ADME. Put shortly:
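LC-MS quantified test compound remaining after 0 and 2 h incubation with human liver microsomes. Triplicate samples, clarified by 10 min centrifugation at 14000 g.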

Series [6] relates to retinal vasculature (VEGF dependent). Put plainly: In vivo assay of retinal vascular development in neonatal rats. As to conditions: P8 model; intravitreal; 5 mg/ml; vehicle PEG/water 50:50.
The target in series [7] is unphosphorylated VEGF-R2Δ50 (FLVK) (Homo sapiens, UniProt P35968, DEL940-989/E990V). Kind of series: VEGF-R2 coupled spectrophotometric assay, unphosphorylated VEGF-R2Δ50 (FLVK). As to conditions: for Ki: FLVK Ki, Table 1.
Series [8] is described as follows: Determination of inhibitor concentration in mouse plasma after intraperitoneal and oral dosing. The class given is in vivo. In short, it runs like this: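 Plasma levels quantified by HPLC or LC-MS using a standard curve prepared in mouse plasma, following ethyl acetate extraction with internal standard and sodium hydroxide. Sampling at 0.5, 1, 4 h (ocular bleed) and 7 h (cardiac puncture) after oral or intraperitoneal dosing.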

In series [9] the target is human FGF-R1 (Homo sapiens, UniProt P11362, C488A/C584S/L457V). Kind of series: FGF-R spectrophotometric assay.
Series [10] relates to human umbilical vein endothelial cells (HUVEC). Put plainly: HUVEC proliferation assay (VEGF-stimulated, MTT). The class given is cell-based. As to conditions: Homo sapiens, HUVEC, + albumin; read-out: HUVEC + albumin IC50.
Setting [11] is: IP, 25 mg/kg, vehicle PEG400:H2O pH 2.3 30:70.
[12] abbreviates: PO, 10 mg/kg, vehicle PEG400:H2O pH 2.3 30:70.
The mark [13] stands for this setting: PO, 25 mg/kg, vehicle PEG400:H2O pH 2.3 30:70.
[14] abbreviates: PO, 50 mg/kg, vehicle PEG400:H2O pH 2.3 30:70.
The mark [15] stands for this setting: female, IP, 25 mg/kg, vehicle PEG400:H2O pH 2.3 30:70, read-out: Cmin (7 hr conc.).
[16] abbreviates: female, PO, 25 mg/kg, vehicle PEG400:H2O pH 2.3 30:70, read-out: Cmin (7 hr conc.).
Setting [17] is: female, PO, 50 mg/kg, vehicle PEG400:H2O pH 2.3 30:70, read-out: Cmin (7 hr conc.).
Where [18] appears, read: female, IP, 25 mg/kg, vehicle PEG400:H2O pH 2.3 30:70.
The mark [19] stands for this setting: female, PO, 50 mg/kg, vehicle PEG400:H2O pH 2.3 30:70.

SMILES strings stand for the structures. Like-named read-outs stand apart in the source and are kept apart here.

CDK1, sequence (P06493 whole entry, species assumed, the tested form may be a part): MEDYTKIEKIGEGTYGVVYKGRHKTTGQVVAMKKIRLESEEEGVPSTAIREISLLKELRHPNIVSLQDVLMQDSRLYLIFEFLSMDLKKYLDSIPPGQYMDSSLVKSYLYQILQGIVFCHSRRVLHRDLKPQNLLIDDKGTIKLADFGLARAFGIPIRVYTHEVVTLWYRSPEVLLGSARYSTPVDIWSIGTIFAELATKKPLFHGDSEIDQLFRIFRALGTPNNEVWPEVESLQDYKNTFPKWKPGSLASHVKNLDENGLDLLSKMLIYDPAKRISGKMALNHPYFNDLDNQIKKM
CDK1, sequence (P14635 whole entry partner, species assumed, the tested form may be a part): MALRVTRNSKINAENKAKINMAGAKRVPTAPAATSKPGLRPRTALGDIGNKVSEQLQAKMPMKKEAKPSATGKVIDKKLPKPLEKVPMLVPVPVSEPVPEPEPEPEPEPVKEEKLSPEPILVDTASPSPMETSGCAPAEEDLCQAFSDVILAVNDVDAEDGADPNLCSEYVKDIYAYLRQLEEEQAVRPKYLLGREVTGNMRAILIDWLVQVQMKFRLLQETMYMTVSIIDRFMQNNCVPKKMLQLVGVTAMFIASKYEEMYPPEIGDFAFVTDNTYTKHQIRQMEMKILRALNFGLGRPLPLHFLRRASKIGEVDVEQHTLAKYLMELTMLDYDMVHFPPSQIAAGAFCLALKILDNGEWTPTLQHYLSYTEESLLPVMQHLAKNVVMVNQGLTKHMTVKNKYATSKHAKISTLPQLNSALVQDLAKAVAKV
unphosphorylated VEGF-R2Δ50 (FLVK), sequence (P35968 with tags, fused parts or gaps DEL940-989/E990V limits assumed): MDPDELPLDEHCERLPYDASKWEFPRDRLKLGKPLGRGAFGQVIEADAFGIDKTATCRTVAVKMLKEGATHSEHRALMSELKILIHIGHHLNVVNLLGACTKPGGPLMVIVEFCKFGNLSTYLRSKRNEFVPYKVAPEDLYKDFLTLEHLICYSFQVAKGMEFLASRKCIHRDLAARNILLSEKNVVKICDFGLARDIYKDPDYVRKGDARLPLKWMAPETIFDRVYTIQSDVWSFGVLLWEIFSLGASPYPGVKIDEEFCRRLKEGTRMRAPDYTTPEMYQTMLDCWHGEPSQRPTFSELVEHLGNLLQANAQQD
CDK4/Cyclin D3 complex, sequence (P11802 whole entry, the tested form may be a part): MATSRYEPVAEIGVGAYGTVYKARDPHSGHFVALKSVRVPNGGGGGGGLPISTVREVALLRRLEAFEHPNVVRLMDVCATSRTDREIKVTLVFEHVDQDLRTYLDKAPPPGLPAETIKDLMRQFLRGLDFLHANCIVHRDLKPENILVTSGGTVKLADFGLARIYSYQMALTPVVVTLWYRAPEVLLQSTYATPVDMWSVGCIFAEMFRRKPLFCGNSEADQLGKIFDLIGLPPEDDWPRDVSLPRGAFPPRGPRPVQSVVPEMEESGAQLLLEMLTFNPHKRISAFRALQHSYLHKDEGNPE
CDK4/Cyclin D3 complex, sequence (P30281 whole entry partner, the tested form may be a part): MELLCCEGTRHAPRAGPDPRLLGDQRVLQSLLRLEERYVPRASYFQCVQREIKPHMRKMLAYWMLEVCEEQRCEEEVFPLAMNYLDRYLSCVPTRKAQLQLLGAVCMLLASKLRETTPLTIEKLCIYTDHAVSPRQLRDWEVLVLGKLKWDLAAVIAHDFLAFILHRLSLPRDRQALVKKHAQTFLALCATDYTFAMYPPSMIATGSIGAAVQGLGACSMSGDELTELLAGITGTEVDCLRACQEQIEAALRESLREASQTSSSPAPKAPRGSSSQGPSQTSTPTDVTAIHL
human FGF-R1, sequence (P11362 456-766 L457V/C488A/C584S): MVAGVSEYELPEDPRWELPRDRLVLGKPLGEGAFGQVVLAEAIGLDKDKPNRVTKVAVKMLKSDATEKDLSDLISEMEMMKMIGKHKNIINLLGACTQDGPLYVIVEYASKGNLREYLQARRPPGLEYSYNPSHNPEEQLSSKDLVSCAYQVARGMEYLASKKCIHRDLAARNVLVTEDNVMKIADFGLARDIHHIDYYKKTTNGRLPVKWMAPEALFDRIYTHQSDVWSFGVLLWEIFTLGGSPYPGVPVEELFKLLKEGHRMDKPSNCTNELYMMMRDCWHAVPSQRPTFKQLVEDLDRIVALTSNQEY

One may read the Ki as a dissociation constant, usually derived from enzyme kinetics or from competition with a known ligand. As for `COc1cccc(/C=C/c2n[nH]c3cc(-c4ccncc4)ccc23)c1` [Example 29(e), 6-Pyrid-4-yl-3-E-[2-(3-methoxyphenyl)ethenyl]-1H-indazole], the inhibitory constant (Ki) in [1] is 0.074 µM; in series [2], 1.4 µM; in series [3] it was 0.593 µM; in [4], 2 µM.
`Fc1cccc(/C=C/c2n[nH]c3cc(-c4ccncc4)ccc23)c1` [Example 29(g), 6-Pyrid-4-yl-3-E-[2-(3-fluorophenyl)ethenyl]-1H-indazole]: the Ki in series [1] is 0.068 µM; in [2], 1.4 µM; in [3], 0.39 µM; in series [4] it was 1.1 µM.
Taken in the same sequence, the figures for `Fc1ccccc1/C=C/c1n[nH]c2cc(-c3ccncc3)ccc12` [Example 29(h), 6-Pyrid-4-yl-3-E-[2-(2-fluorophenyl)ethenyl]-1H-indazole] were 0.14 µM, 3 µM, 1.3 µM and 2.2 µM.
Take `C(=C\c1n[nH]c2cc(-c3ccncc3)ccc12)/c1ccc2c(c1)OCO2` [Example 29(r), 6-Pyrid-4-yl-3-E-[2-(3,4-methylenedioxyphenyl)ethenyl]-1H-indazole]: the Ki came out at 0.072 µM in series [1], 1.3 µM in series [2], 0.066 µM in series [3] and 1.1 µM in series [4].
On to `CS(=O)(=O)c1ccc(C(=O)Nc2cccc(Oc3ccc4c(/C=C/c5ccccn5)n[nH]c4c3)c2)s1` [Example 31(c), 6-[3-((5-Methylsulfonylthien-2-yl)carboxanido)phenoxy]-3-E-[2-(pyridin-2-yl)ethenyl]-1H-indazole], for which the “% remain (HLM, 2 h)” value in [5] is 87%. In addition, in series [6], the “Initial Evaluation” value was “+/++ var”. Further, in series [7], the Ki is < 0.0001 µM.
What is called Cmax is the peak of the concentration-time curve. As a reminder, the % inhibition is the share of the control response that was lost under treatment. A higher % inhibition goes with strong suppression. Take `CCn1nc(C)cc1C(=O)Nc1cccc(Oc2ccc3c(/C=C/c4ccccn4)n[nH]c3c2)c1` [Example 31(d), 6-[3-((1-Ethyl-3-methyl-1H-pyrazol-5-yl)carboxamido)phenoxy]-3-E-[2-(pyridin-2-yl)ethenyl]-1H-indazole]: the “% remain (HLM, 2 h)” value in series [5] stood at 110%. Also, the AUClast in series [8] (setting [11]) worked out at 237784 ng·h/mL; in series [8] (setting [12]) it was 49120 ng·h/mL; in [8] (setting [13]) it was 203860 ng·h/mL; in [8] (setting [14]) it was 430683 ng·h/mL. In addition, the Cmax stood at 64184 ng/mL in series [8] (setting [11]), 9740 ng/mL in series [8] (setting [12]), 50810 ng/mL in [8] (setting [13]) and 76915 ng/mL in series [8] (setting [14]). For the same compound, the “plasma half-life (T1/2)” value in [8] (setting [11]) is 5.3 h; in series [8] (setting [12]), 3.1 h; in series [8] (setting [13]), 1.9 h; in [8] (setting [14]), 39.3 h. Also, the results for the concentration at 7 h in [8] (setting [15]), in series [8] (setting [16]) and in [8] (setting [17]) were 15100 ng/mL, 3800 ng/mL and 42500 ng/mL, respectively. Moreover, the concentration at 7 hr in series [8] (female, PO, 10 mg/kg, vehicle PEG400:H2O pH 2.3 30:70, read-out: Cmin (7 hr conc.)) was found to be 2020 ng/mL. Further, the affinity in series [9] corresponds to a Ki of 0.014 µM. Besides, in [6], the “% inhibition” value is 12%.
Take `CCONC(=O)c1ccccc1Sc1ccc2c(/C=C/c3ccccn3)n[nH]c2c1` [Example 35(dd), 6-[2-(Ethoxycarbamoyl)phenylsulfanyl]-3-E-[2-(pyridin-2-yl)ethenyl]-1H-indazole]: the “% remain (HLM, 2 h)” value in [5] was 26%. The Ki in series [9] came to 0.075 µM; in series [7], 0.0006 µM. The “Initial Evaluation” value in series [6] is given as “++/+++ var”.
What is called IC50 is the concentration that inhibits the measured activity by half. One may read the inhibition as the percentage by which the read-out fell short of the control. Turning to `C=CCONC(=O)c1ccccc1Sc1ccc2c(/C=C/c3ccccn3)n[nH]c2c1` [Example 35(j), 6-[2-(Allyloxycarbamoyl)phenylsulfanyl]-3-E-[2-(pyridin-2-yl)ethenyl]-1H-indazole], the IC50 in series [10] turned out to be 0.0015 µM. Further, in [5], the “% remain (HLM, 2 h)” value is recorded as 5%. The AUClast in [8] (setting [11]) turned out to be 9531 ng·h/mL; in [8] (setting [14]) it was 1328 ng·h/mL. Further, the “plasma half-life (T1/2)” value in series [8] (setting [11]) came out at 1.3 h; in [8] (setting [14]), 4.5 h. Moreover, the concentration at 7 h in series [8] (setting [15]) was determined as 52 ng/mL; in [8] (setting [17]) it was 5 ng/mL. Moreover, the “% inhibition” value in series [6] worked out at 7%. Moreover, in [7] (read-out: FLVK % inhibition), the inhibition at 0.05 µM was determined as 99%.
The term AUC(0-t) denotes exposure summed from dosing to a finite time, without extrapolation to infinity. Low values mean low exposure, high ones high exposure. As for `CCn1nc(C)cc1C(=O)Nc1cc(C(=O)c2ccc3c(/C=C/c4ccccn4)n[nH]c3c2)ccc1C` [Example 41(ee), 6-[3-((1-Ethyl-3-methyl-1H-pyrazol-5-yl)carboxanido)-4-methylbenzoyl]-3-E-[2-(pyridin-2-yl)ethenyl]-1H-indazole], in series [5], the “% remain (HLM, 2 h)” value came out at 47%. Moreover, the “plasma half-life (T1/2)” value was 4.0 h in series [8] (setting [11]) and 3.4 h in series [8] (setting [14]). For the same compound, the values for the AUC(0-t) in series [8] (setting [18]) and in series [8] (setting [19]) were > 28400 ng·h/mL and > 25300 ng·h/mL, respectively. In addition, the concentration at 7 h worked out at 1670 ng/mL in series [8] (setting [15]) and 1210 ng/mL in series [8] (setting [17]). Further, in series [6], the “Initial Evaluation” value is listed as “+/++ var”. For the same compound, in series [7], the affinity, expressed as Ki, was 0.00013 µM.
For the compound `Cc1cc(C(=O)Nc2cc(C(=O)c3ccc4c(/C=C/c5ccccn5)n[nH]c4c3)c(C)cc2C)n(C)n1` [Example 41(mm), 6-[2,4-Dimethyl-5-((1,3-dimethyl-1H-pyrazol-5-yl)carboxamido)benzoyl]-3-E-[2-(pyridin-2-yl)ethenyl]-1H-indazole], in series [5], the “% remain (HLM, 2 h)” value is reported as 94%. In addition, in series [8] (setting [13]), the AUClast was 2261 ng·h/mL, the Cmax amounted to 852 ng/mL and the “plasma half-life (T1/2)” value was determined as 2.5 h. Besides, the concentration at 7 h in series [8] (setting [16]) was found to be 127 ng/mL. In [6], the “Initial Evaluation” value was “+ (one plus being detectable regression judged to be approximately 25 percent or less)”.
Take `CCCn1nc(C)cc1C(=O)Nc1cccc(C(=O)c2ccc3c(/C=C/c4ccccn4)n[nH]c3c2)c1` [Example 41(r), 6-[3-((1-n-Propyl-3-methyl-1H-pyrazol-5-yl)carboxamido)benzoyl]-3-E-[2-(pyridin-2-yl)ethenyl]-1H-indazole]: the “% remain (HLM, 2 h)” value in series [5] is recorded as 83%. For the same compound, the results for the AUC(0-t) in series [8] (setting [18]) and in series [8] (setting [19]) were > 23800 ng·h/mL and > 17800 ng·h/mL, respectively. Besides, the Cmax in series [8] (female, IP, 25 mg/kg, vehicle PEG400:H2O pH 2.3 30:70, read-out: Cmax) is > 5000 ng/mL; in series [8] (female, PO, 50 mg/kg, vehicle PEG400:H2O pH 2.3 30:70, read-out: Cmax), > 5000 ng/mL. The concentration at 7 h in series [8] (setting [15]) and in series [8] (setting [17]) was > 5000 ng/mL in each case. The “Initial Evaluation” value in series [6] is given as “+/++ var”.
As to `C(=N\n1cccc1)/c1n[nH]c2cc(-c3ccncc3)ccc12` [Example 51, 6-Pyrid-4-yl-3-E-(N-(pyrrol-1-yl)iminomethyl)-1H-indazole], the Ki is 0.087 µM in [1] and 0.146 µM in series [3]. For the same compound, the figures for the inhibition at 1 µM in [2] (compound concentration 1 μM) and in [4] (read-out: CDK4 % inhibition) were 84% and 79%, respectively.
Take `O=C(Nc1ccc(O)cc1)c1ccc2c(-c3nc4ccccc4[nH]3)n[nH]c2c1` [Example 53(a), 3-(1H-Benzoidazol-2-yl)-N-(4-hydroxyphenyl)-1H-indazole-6-carboxamide]: the Ki in series [1] was determined as 0.301 µM; in series [3], 24 µM. In addition, the results for the inhibition at 5 µM in series [2] (@ 5 μM) and in [4] (read-out: CDK4 % inhibition) were 13% and 28%, respectively.
